Measured values taken from ChEMBL document CHEMBL1770113, “Improved synthesis of 15-deoxyspergualin analogs using the Ugi multi-component reaction” (Bioorg Med Chem Lett, 2011).
Values after ≈ are worked out from the molar mass of the structure shown.

Experiments:
Staphylococcus aureus = test: Antibacterial activity against Staphylococcus aureus; type: functional
Escherichia coli = test: Antibacterial activity against Escherichia coli; type: functional
[1] = Chemical stability of the compound in aqueous buffer assessed as half life at pH 5 by thin layer chromatography; type: physicochemical; settings: for half-life: aqueous buffer; for Stability: buffer
Bacillus subtilis = test: Antibacterial activity against Bacillus subtilis; type: functional
[2] = Chemical stability of the compound in aqueous buffer assessed as half life at pH 8 by thin layer chromatography; type: physicochemical; settings: for half-life: aqueous buffer
[3] = Chemical stability of the compound in aqueous buffer assessed as half life at pH 7 by thin layer chromatography; type: physicochemical
[4] = Chemical stability of the compound in aqueous buffer assessed as half life at pH 10 by thin layer chromatography; type: physicochemical; settings: for half-life: aqueous buffer

MIC (Staphylococcus aureus) [µg/mL] | MIC (Escherichia coli) [µg/mL] | half-life [1] [h] | MIC (Bacillus subtilis) [µg/mL] | half-life [2] [h] | half-life [3] [h] | half-life [4] [h] | Stability [1] | Stability ([2]; buffer) | Stability ([4]; buffer) | Structure (SMILES)
10 (≈ 26.9 µM) | > 250 | 90 | 10 (≈ 26.9 µM) | 260 | 100 | 3 | – | – | – | N=C(N)NCCCCCCC(=O)NCC(=O)NCCCCNCCCN
50 (≈ 125 µM) | > 250 | 140 | 50 (≈ 125 µM) | 720 | 190 | 48 | – | – | – | COC(NC(=O)CCCCCCNC(=N)N)C(=O)NCCCCNCCCN (racemic)
50 (≈ 95 µM) | > 250 | – | 50 (≈ 95 µM) | – | 440 | 420 | Unstable | Unstable | – | N=C(N)NCCCCCCC(=O)NC(C(=O)NCCCCNCCCN)c1ccc(Br)cc1 (racemic)
50 (≈ 105 µM) | > 250 | – | 50 (≈ 105 µM) | 563 | 203 | – | Unstable | – | Unstable | N=C(N)NCCCCCCC(=O)NC(CCc1ccccc1)C(=O)NCCCCNCCCN (racemic)
